Source: ChEMBL document CHEMBL3526019, “Novel cytochrome P450-mediated ring opening of the 1,3,4-oxadiazole in setileuton, a 5-lipoxygenase inhibitor” (Drug Metab Dispos, 2011)
One block for each molecule: values may come before it.

Assays:
Cytochrome P450 1A1 [1] = molecular target: T1, Cytochrome P450 1A1 (Rattus norvegicus, UniProt P00185); assay: (§1) Activity of rat recombinant CYP1A1 expressed in baculovirus-infected insect cells assessed as enzyme-mediated N-((4-(4-fluorophenyl)-2-oxochroman-7-yl)methyl)-2-((S)-2-hydroxy-2-(trifluoromethyl)butanoyl)hydrazinecarboxamide formation at 10 uM preincubated for 3 mins measured after 30 mins in presence of 1 mM NADPH; type: ADME; settings: 0.5 h
T1 sequence (P00185 whole entry): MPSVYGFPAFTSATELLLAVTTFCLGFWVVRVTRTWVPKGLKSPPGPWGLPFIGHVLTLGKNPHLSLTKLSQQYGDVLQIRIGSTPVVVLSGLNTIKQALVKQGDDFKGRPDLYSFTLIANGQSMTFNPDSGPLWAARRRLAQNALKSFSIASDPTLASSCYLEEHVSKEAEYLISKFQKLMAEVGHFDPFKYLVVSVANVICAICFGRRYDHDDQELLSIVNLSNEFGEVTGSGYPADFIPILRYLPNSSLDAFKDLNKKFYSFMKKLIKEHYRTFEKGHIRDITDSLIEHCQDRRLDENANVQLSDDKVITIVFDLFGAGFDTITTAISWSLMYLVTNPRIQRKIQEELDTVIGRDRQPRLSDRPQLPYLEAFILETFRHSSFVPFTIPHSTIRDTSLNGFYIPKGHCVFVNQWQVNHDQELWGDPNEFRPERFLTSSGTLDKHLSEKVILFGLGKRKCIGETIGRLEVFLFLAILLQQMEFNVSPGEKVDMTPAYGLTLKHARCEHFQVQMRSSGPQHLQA

Cytochrome P450 3A2 [2] = molecular target: T2, Cytochrome P450 3A2 (Rattus norvegicus, UniProt P05183); assay: as §1, with “CYP3A2” for “CYP1A1”; type: ADME; settings: 0.5 h
T2 sequence (P05183 whole entry): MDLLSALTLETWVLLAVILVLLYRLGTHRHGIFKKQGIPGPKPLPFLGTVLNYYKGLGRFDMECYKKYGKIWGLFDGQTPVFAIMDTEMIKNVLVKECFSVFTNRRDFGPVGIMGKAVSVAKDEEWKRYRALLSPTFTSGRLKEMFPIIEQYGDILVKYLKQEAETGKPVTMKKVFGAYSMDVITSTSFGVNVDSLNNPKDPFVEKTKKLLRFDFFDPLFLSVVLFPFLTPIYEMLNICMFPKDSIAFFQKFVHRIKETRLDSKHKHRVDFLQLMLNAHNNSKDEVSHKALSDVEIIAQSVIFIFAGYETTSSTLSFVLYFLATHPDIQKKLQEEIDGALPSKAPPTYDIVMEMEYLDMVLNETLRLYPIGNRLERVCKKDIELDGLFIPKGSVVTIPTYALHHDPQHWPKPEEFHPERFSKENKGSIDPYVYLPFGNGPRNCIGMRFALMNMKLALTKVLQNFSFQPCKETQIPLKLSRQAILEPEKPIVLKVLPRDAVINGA

Cytochrome P450 1A2 [3] = molecular target: T3, Cytochrome P450 1A2 (Rattus norvegicus, UniProt P04799); assay: as §1, with “CYP1A2” for “CYP1A1”; type: ADME; settings: 0.5 h
T3 sequence (P04799 whole entry): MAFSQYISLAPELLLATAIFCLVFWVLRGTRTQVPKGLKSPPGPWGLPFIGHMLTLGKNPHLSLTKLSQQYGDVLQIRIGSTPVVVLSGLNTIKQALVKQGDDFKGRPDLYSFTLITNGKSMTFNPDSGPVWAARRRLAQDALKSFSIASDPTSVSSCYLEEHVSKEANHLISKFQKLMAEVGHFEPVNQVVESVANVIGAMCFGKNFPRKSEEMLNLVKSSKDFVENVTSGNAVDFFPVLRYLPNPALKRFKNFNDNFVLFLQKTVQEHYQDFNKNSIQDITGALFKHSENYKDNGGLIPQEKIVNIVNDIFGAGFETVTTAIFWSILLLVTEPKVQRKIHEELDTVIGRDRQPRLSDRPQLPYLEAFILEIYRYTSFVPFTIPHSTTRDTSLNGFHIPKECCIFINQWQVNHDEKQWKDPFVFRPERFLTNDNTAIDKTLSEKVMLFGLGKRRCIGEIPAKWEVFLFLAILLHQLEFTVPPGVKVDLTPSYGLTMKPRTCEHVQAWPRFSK

Cytochrome P450 3A1 [4] = molecular target: T4, Cytochrome P450 3A1 (Rattus norvegicus, UniProt P04800); assay: as §1, with “CYP3A1” for “CYP1A1”; type: ADME; settings: 0.5 h
T4 sequence (P04800 whole entry): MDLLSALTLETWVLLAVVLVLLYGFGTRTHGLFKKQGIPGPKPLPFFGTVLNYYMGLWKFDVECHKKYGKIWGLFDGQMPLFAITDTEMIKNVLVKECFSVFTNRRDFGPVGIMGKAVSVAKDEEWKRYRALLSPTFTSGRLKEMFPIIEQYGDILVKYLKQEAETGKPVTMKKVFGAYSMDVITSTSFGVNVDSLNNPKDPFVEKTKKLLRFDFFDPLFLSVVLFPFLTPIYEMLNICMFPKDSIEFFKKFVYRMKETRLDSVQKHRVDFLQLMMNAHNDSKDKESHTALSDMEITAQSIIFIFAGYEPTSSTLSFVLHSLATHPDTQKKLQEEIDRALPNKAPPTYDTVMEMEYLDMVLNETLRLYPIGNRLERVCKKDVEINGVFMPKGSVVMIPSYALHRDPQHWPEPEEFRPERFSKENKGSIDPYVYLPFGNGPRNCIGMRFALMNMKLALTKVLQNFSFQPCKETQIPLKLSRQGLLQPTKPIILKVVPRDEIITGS

Cytochrome P450 1A2 [5] = molecular target: T3, Cytochrome P450 1A2; assay: (§2) Activity of rat recombinant CYP1A2 expressed in baculovirus-infected insect cells assessed as enzyme-mediated N-((4-(4-fluorophenyl)-2-oxochroman-7-yl)methyl)-2-((S)-2-hydroxy-2-(trifluoromethyl)butanoyl)hydrazinecarboxamide formation preincubated for 3 mins by Michaelis-Menten equation in presence of NADPH for 10 mins; type: ADME
Liver microsome [6] = assay: Drug metabolism in NADPH fortified rat liver microsomes assessed as N-((4-(4-fluorophenyl)-2-oxochroman-7-yl)methyl)-2-((S)-2-hydroxy-2-(trifluoromethyl)butanoyl)hydrazinecarboxamide level; type: ADME
Liver microsome [7] = assay: Drug metabolism in rat liver microsomes assessed as N-((4-(4-fluorophenyl)-2-oxochroman-7-yl)methyl)-2-((S)-2-hydroxy-2-(trifluoromethyl)butanoyl)hydrazinecarboxamide formation by Michaelis-Menten equation in presence of 1 mM NADPH for 10 mins; type: ADME
[8] = Drug metabolism in rat urine assessed as N-((4-(4-fluorophenyl)-2-oxochroman-7-yl)methyl)-2-((S)-2-hydroxy-2-(trifluoromethyl)butanoyl)hydrazinecarboxamide level; type: ADME, tissue-based
Cytochrome P450 3A1 [9] = molecular target: T4, Cytochrome P450 3A1; assay: as §2, with “CYP3A1” for “CYP1A2”; type: ADME
Liver microsome [10] = assay: Drug level in NADPH fortified rat liver microsomes treated with setileuton; type: ADME
Cytochrome P450 1A1 [11] = molecular target: T1, Cytochrome P450 1A1; assay: Activity of rat recombinant CYP1A1 expressed in baculovirus-infected insect cells assessed as enzyme-mediated compound formation treated with setileuton at 10 uM preincubated for 3 mins measured after 30 mins in presence of 1 mM NADPH; type: ADME; settings: 0.5 h
Cytochrome P450 1A2 [12] = molecular target: T3, Cytochrome P450 1A2; assay: Activity of CYP1A2 in rat liver microsomes assessed as enzyme mediated compound formation treated with 10 uM setileuton after 10 mins in absence of NADPH (reference value: 1.93 +/- 0.40 nM); type: ADME
Cytochrome P450 3A2 [13] = molecular target: T2, Cytochrome P450 3A2; assay: Activity of rat recombinant CYP3A2 expressed in baculovirus-infected insect cells assessed as enzyme-mediated compound formation treated with setileuton at 10 uM preincubated for 3 mins measured after 30 mins in presence of 1 mM NADPH; type: ADME; settings: 0.5 h
Cytochrome P450 1A2 [14] = molecular target: T3, Cytochrome P450 1A2; assay: Activity of CYP1A2 in rat liver microsomes assessed as enzyme mediated compound formation treated with 10 uM setileuton after 2 mins in presence of NADPH (reference value: 8.10 +/- 2.26 nM); type: ADME
Cytochrome P450 1A2 [15] = molecular target: T3, Cytochrome P450 1A2; assay: Activity of CYP1A2 in rat liver microsomes assessed as enzyme mediated compound formation treated with 10 uM setileuton after 5 mins in absence of NADPH (reference value: 1.93 +/- 0.40 nM); type: ADME
Cytochrome P450 1A2 [16] = molecular target: T3, Cytochrome P450 1A2; assay: Activity of CYP1A2 in rat liver microsomes assessed as enzyme mediated compound formation treated with 10 uM setileuton after 2 mins in absence of NADPH (reference value: 1.93 +/- 0.40 nM); type: ADME
Cytochrome P450 1A2 [17] = molecular target: T3, Cytochrome P450 1A2; assay: Activity of CYP1A2 in rat liver microsomes assessed as enzyme mediated compound formation treated with 10 uM setileuton after 8 mins in absence of NADPH (reference value: 1.93 +/- 0.40 nM); type: ADME
[18] = Drug level in rat urine treated with setileuton; type: ADME, tissue-based; settings: in vivo
Cytochrome P450 1A2 [19] = molecular target: T3, Cytochrome P450 1A2; assay: Activity of CYP1A2 in rat liver microsomes assessed as enzyme mediated compound formation treated with 10 uM setileuton after 10 mins in presence of NADPH (reference value: 8.10 +/- 2.26 nM); type: ADME
Cytochrome P450 3A1 [20] = molecular target: T4, Cytochrome P450 3A1; assay: Activity of rat recombinant CYP3A1 expressed in baculovirus-infected insect cells assessed as enzyme-mediated compound formation treated with setileuton at 10 uM preincubated for 3 mins measured after 30 mins in presence of 1 mM NADPH; type: ADME; settings: 0.5 h
Cytochrome P450 1A2 [21] = molecular target: T3, Cytochrome P450 1A2; assay: Activity of CYP1A2 in rat liver microsomes assessed as enzyme mediated compound formation treated with 10 uM setileuton after 8 mins in presence of NADPH (reference value: 8.10 +/- 2.26 nM); type: ADME
Cytochrome P450 1A2 [22] = molecular target: T3, Cytochrome P450 1A2; assay: Activity of CYP1A2 in rat liver microsomes assessed as enzyme mediated compound formation treated with 10 uM setileuton after 5 mins in presence of NADPH (reference value: 8.10 +/- 2.26 nM); type: ADME
Cytochrome P450 1A2 [23] = molecular target: T3, Cytochrome P450 1A2; assay: Activity of rat recombinant CYP1A2 expressed in baculovirus-infected insect cells assessed as enzyme-mediated compound formation treated with setileuton at 10 uM preincubated for 3 mins measured after 30 mins in presence of 1 mM NADPH; type: ADME; settings: 0.5 h
[24] = substrate: CC[C@](O)(c1nnc(NCc2ccc3c(-c4ccc(F)cc4)cc(=O)oc3c2)o1)C(F)(F)F; assay: as §2, with “CYP3A2” for “CYP1A2”; type: ADME
[25] = substrate: CC[C@](O)(c1nnc(NCc2ccc3c(-c4ccc(F)cc4)cc(=O)oc3c2)o1)C(F)(F)F; assay: as §2, with “CYP1A1” for “CYP1A2”; type: ADME

Drug metabolism (Cytochrome P450 1A1 [1]): metabolite_detected
Drug metabolism (Cytochrome P450 3A2 [2]): metabolite_detected
Drug metabolism (Cytochrome P450 1A2 [3]): metabolite_detected
Drug metabolism (Cytochrome P450 3A1 [4]): metabolite_detected
S50 (Cytochrome P450 1A2 [5]): 8.2 µM
Drug metabolism (Liver microsome [6]): metabolite_detected
S50 (Liver microsome [7]): 10.6 µM
Drug metabolism [8]: metabolite_detected
S50 (Cytochrome P450 3A1 [9]): 8.2 µM
Molecule: CC[C@](O)(c1nnc(NCc2ccc3c(-c4ccc(F)cc4)cc(=O)oc3c2)o1)C(F)(F)F [SETILEUTON]

Drug metabolism (Liver microsome [10]): metabolite_detected
Drug metabolism (Cytochrome P450 1A1 [11]): metabolite_detected
Drug metabolism (Cytochrome P450 1A2 [12]): 1.56 nM
Drug metabolism (Cytochrome P450 3A2 [13]): metabolite_detected
Drug metabolism (Cytochrome P450 1A2 [14]): 29.74 nM
Drug metabolism (Cytochrome P450 1A2 [15]): 1.66 nM
Drug metabolism (Cytochrome P450 1A2 [16]): 1.81 nM
Drug metabolism (Cytochrome P450 1A2 [17]): 1.43 nM
Drug metabolism [18]: metabolite_detected
Drug metabolism (Cytochrome P450 1A2 [19]): 100.4 nM
Drug metabolism (Cytochrome P450 3A1 [20]): metabolite_detected
Drug metabolism (Cytochrome P450 1A2 [21]): 74.89 nM
Drug metabolism (Cytochrome P450 1A2 [22]): 57.93 nM
Drug metabolism (Cytochrome P450 1A2 [23]): metabolite_detected
Molecule: CC[C@](O)(C(=O)NNC(=O)NCc1ccc2c(-c3ccc(F)cc3)cc(=O)oc2c1)C(F)(F)F

The remaining lines, values behind:

B1: Cytochrome P450 3A2 (Rattus norvegicus) (protein)
chain: MDLLSALTLETWVLLAVILVLLYRLGTHRHGIFKKQGIPGPKPLPFLGTVLNYYKGLGRFDMECYKKYGKIWGLFDGQTPVFAIMDTEMIKNVLVKECFSVFTNRRDFGPVGIMGKAVSVAKDEEWKRYRALLSPTFTSGRLKEMFPIIEQYGDILVKYLKQEAETGKPVTMKKVFGAYSMDVITSTSFGVNVDSLNNPKDPFVEKTKKLLRFDFFDPLFLSVVLFPFLTPIYEMLNICMFPKDSIAFFQKFVHRIKETRLDSKHKHRVDFLQLMLNAHNNSKDEVSHKALSDVEIIAQSVIFIFAGYETTSSTLSFVLYFLATHPDIQKKLQEEIDGALPSKAPPTYDIVMEMEYLDMVLNETLRLYPIGNRLERVCKKDIELDGLFIPKGSVVTIPTYALHHDPQHWPKPEEFHPERFSKENKGSIDPYVYLPFGNGPRNCIGMRFALMNMKLALTKVLQNFSFQPCKETQIPLKLSRQAILEPEKPIVLKVLPRDAVINGA
Km [24]: 2.2 µM

B2: Cytochrome P450 1A1 (Rattus norvegicus) (protein)
chain: MPSVYGFPAFTSATELLLAVTTFCLGFWVVRVTRTWVPKGLKSPPGPWGLPFIGHVLTLGKNPHLSLTKLSQQYGDVLQIRIGSTPVVVLSGLNTIKQALVKQGDDFKGRPDLYSFTLIANGQSMTFNPDSGPLWAARRRLAQNALKSFSIASDPTLASSCYLEEHVSKEAEYLISKFQKLMAEVGHFDPFKYLVVSVANVICAICFGRRYDHDDQELLSIVNLSNEFGEVTGSGYPADFIPILRYLPNSSLDAFKDLNKKFYSFMKKLIKEHYRTFEKGHIRDITDSLIEHCQDRRLDENANVQLSDDKVITIVFDLFGAGFDTITTAISWSLMYLVTNPRIQRKIQEELDTVIGRDRQPRLSDRPQLPYLEAFILETFRHSSFVPFTIPHSTIRDTSLNGFYIPKGHCVFVNQWQVNHDQELWGDPNEFRPERFLTSSGTLDKHLSEKVILFGLGKRKCIGETIGRLEVFLFLAILLQQMEFNVSPGEKVDMTPAYGLTLKHARCEHFQVQMRSSGPQHLQA
Km [25]: 6 µM
